Measurements: ChEMBL document CHEMBL4825682, “Discovery of novel purinylthiazolylethanone derivatives as anti-Candida albicans agents through possible multifaceted mechanisms” (Eur J Med Chem, 2021)
Converted amounts (≈) assume the structure as drawn. The source made the active and inactive calls. The rule behind the calls is not given here.

Tests used:
[1] = test system: Cell membrane; assay: Induction of cell membrane destruction in Candida albicans assessed as reduction in LDH activity at 4 times MIC relative to control; format: subcellular; parameters: scale not given: the % may be the effect or the level left
[2] = test system: Cell membrane; assay: Induction of cytoplasmic membrane depolarization in Candida albicans by diSC3(5)-dye based assay; format: subcellular
[3] = test system: L02; assay: Cytotoxicity against human L02 cells assessed as increase in cell viability measured after 72 hrs by CCK8 assay relative to control; format: cell-based; settings: l02, 72 h
[4] = test system: Candida tropicalis; assay: Additive antifungal activity against Candida tropicalis assessed as fractional inhibitory concentration index in presence of fluconazole; format: functional
[5] = test system: Cell membrane; assay: Induction of cell membrane permeabilization in Candida albicans up to 6 times MIC by propidium iodide staining based fluorescence assay; format: subcellular
[6] = test system: Candida albicans; assay: Antifungal activity against Candida albicans assessed as fungal growth inhibition by CLSI protocol based microbroth dilution method; format: functional
[7] = test system: Candida parapsilosis; assay: Antifungal activity against Candida parapsilosis ATCC 22019 assessed as fungal growth inhibition by CLSI protocol based microbroth dilution method; format: functional; settings: Lodderomyces parapsilosis
[8] = test system: Candida tropicalis; assay: Potentiation of fluconazole-induced antifungal activity against Candida tropicalis assessed as fluconazole MIC (reference value: […] ug/ml); format: functional
[9] = test system: Candida albicans; assay: Induction of reactive nitrogen species generation in Candida albicans assessed as increase in NO level at 6 times MIC by Greiss reagent assay relative to control; format: functional
[10] = test system: Candida tropicalis; assay: Antifungal activity against Candida tropicalis assessed as fungal growth inhibition by CLSI protocol based microbroth dilution method; format: functional
[11] = test system: Candida albicans; assay: Antifungal activity against Candida albicans measured after 16 passages; format: functional, organism-based
[12] = test system: Cell wall; assay: Induction of cell wall damage in Candida albicans; format: subcellular
[13] = test system: L02; assay: Cytotoxicity against human L02 cells at 100 ug/ml measured after 72 hrs by CCK8 assay; format: cell-based; settings: l02, 72 h, dose 100 µg/ml
[14] = test system: Candida albicans; assay: Antibiofilm activity against Candida albicans assessed as inhibition of biofilm formation at 0.5 to 5 times MIC by Alamar blue assay; format: functional, organism-based
[15] = test system: Cell wall; assay: Induction of cell wall damage in Candida tropicalis; format: subcellular
[16] = test system: Candida albicans; assay: Synergistic antifungal activity against Candida albicans assessed as fractional inhibitory concentration index in presence of fluconazole; format: functional
[17] = test system: Cell wall; assay: Induction of cell wall damage in Aspergillus fumigatus; format: subcellular
[18] = test system: Cell membrane; assay: Induction of cell membrane disruption in Candida albicans assessed as increase in protein leakage by Bradford assay; format: subcellular
[19] = test system: Candida albicans; assay: Potentiation of fluconazole-induced antifungal activity against Candida albicans assessed as fluconazole MIC (reference value: […] ug/ml); format: functional
[20] = test system: Candida albicans; assay: Induction of oxidative stress in Candida albicans assessed as increase in ROS generation by […] probe based assay; format: functional, organism-based
[21] = Hemolytic activity in human RBC at MIC relative to control; format: ADME, cell-based, Erythrocyte; settings: human red blood cells (erythrocytes), read-out: Activity
[22] = Hemolytic activity in human RBC at 8 times MIC relative to control; format: ADME, cell-based, Erythrocyte; settings: human red blood cells (erythrocytes), read-out: Activity
[23] = test system: Candida albicans; assay: Antifungal activity against Candida albicans assessed as reduction in metabolic activity at 0.5 to 6 times MIC by resazurin assay; format: functional, organism-based
[24] = test system: Candida albicans; assay: Antifungal activity against Candida albicans ATCC 90023 assessed as fungal growth inhibition by CLSI protocol based microbroth dilution method; format: functional
[25] = test system: Candida albicans; assay: Induction of oxidative stress in Candida albicans assessed as decrease in cellular GSH level; format: functional, organism-based
[26] = test system: Cell membrane; assay: Induction of cell membrane destruction in Candida albicans assessed as reduction in LDH activity at MIC relative to control; format: subcellular; parameters: scale not given: the % may be the effect or the level left
[27] = test system: Aspergillus fumigatus; assay: Antifungal activity against Aspergillus fumigatus assessed as fungal growth inhibition by CLSI protocol based microbroth dilution method; format: functional
[28] = Hemolytic activity in human RBC; format: cell-based, Erythrocyte; settings: human red blood cells (erythrocytes)

With `CCOC(=O)CN1CCN(c2ncnc3c2ncn3CC(=O)c2nccs2)CC1` the Activity [1] was 50%, the Activity [2] was “Active” and the Activity [3] was over 60%. The “fractional inhibitory concentration index (FICI)” value [4] was 1.02, the Activity [5] was “Active” and the MIC [6] was 1 µg/mL (≈ 2.41 µM). For the same compound, the MIC [7] was 8 µg/mL (≈ 19.3 µM), the MIC [8] was 8 µg/mL and the fold change (FC) [9] was 3.6. The MIC [10] was 8 µg/mL (≈ 19.3 µM), the Activity [11] was “Active” and the Activity [12] was “Active”. For the same compound, the Activity [13] was “Toxic”, the inhibition [14] was “Active” and the Activity [15] was “Active”. For the same compound, the “fractional inhibitory concentration index (FICI)” value [16] was 0.56, the Activity [17] was “inactive” and the Activity [18] was “Dose-Dependent Effect”. The MIC [19] was 0.0625 µg/mL, the Activity [20] was “Dose-Dependent Effect” and the hemolysis at 1 x MIC [21] was 2.6%. The hemolysis at 8 x MIC [22] was 3.8%, the Activity [23] was “Active” and the MIC [24] was 16 µg/mL (≈ 38.5 µM). The Activity [25] was “Active”, the Activity [26] was 30% and the MIC [27] was 16 µg/mL (≈ 38.5 µM). For the same compound, the HC50 [28] was over 256 µg/mL.
